Measurements taken from PubChem BioAssay AID1259407 (Chemical Carcinogenesis Research Information System (CCRIS), 2018).
Active and inactive are the calls of the source. How the calls were made is not given here.

Test system: CCRIS mutagenicity, Ames/micronucleus/aberration tests
Assay: CCRIS mutagenicity studies

CCCCCCCCCCCCC1CCC1=O (centres undefined)
mutagenic call (End Point: In vitro micronucleus, Test System: Human TK6 lymphoblasts, Metabolic Activation: None): active; positive (at highest dose) | mutagenic call (End Point: In vitro micronucleus, Test System: Human TK6 lymphoblasts, Metabolic Activation: Rat, Liver, S-9, Aroclor (1%)): active; positive (at highest dose) | mutagenic call (Test System: Ames Salmonella typhimurium, Strain/Indicator: TA98, Metabolic Activation: None, Method: Microtiter plate-based Miniscreen assay): inactive; negative | mutagenic call (Test System: Ames Salmonella typhimurium, Strain/Indicator: TA98, Metabolic Activation: Rat, Liver, S-9, Aroclor 1254 (5%), Method: Microtiter plate-based Miniscreen assay): inactive; negative | mutagenic call (Test System: Ames Salmonella typhimurium, Strain/Indicator: TA100, Metabolic Activation: None, Method: Microtiter plate-based Miniscreen assay): inactive; negative | mutagenic call (Test System: Ames Salmonella typhimurium, Strain/Indicator: TA100, Metabolic Activation: Rat, Liver, S-9, Aroclor 1254 (5%), Method: Microtiter plate-based Miniscreen assay): inactive; negative | mutagenic call (Test System: Ames Salmonella typhimurium, Strain/Indicator: TA1535, Metabolic Activation: None, Method: Microtiter plate-based Miniscreen assay): inactive; negative | mutagenic call (Test System: Ames Salmonella typhimurium, Strain/Indicator: TA1535, Metabolic Activation: Rat, Liver, S-9, Aroclor 1254 (5%), Method: Microtiter plate-based Miniscreen assay): inactive; negative | mutagenic call (Test System: Ames Salmonella typhimurium, Strain/Indicator: TA1537, Metabolic Activation: None, Method: Microtiter plate-based Miniscreen assay): inactive; negative | mutagenic call (Test System: Ames Salmonella typhimurium, Strain/Indicator: TA1537, Metabolic Activation: Rat, Liver, S-9, Aroclor 1254 (5%), Method: Microtiter plate-based Miniscreen assay): inactive; negative

OCC(Cl)CCl (centres undefined)
mutagenic call (Test System: AMES SALMONELLA TYPHIMURIUM, Strain/Indicator: TA97, Metabolic Activation: HAMSTER, LIVER, S-9, AROCLOR 1254 (10%), Method: PREINCUBATION): active; positive | mutagenic call (Test System: AMES SALMONELLA TYPHIMURIUM, Strain/Indicator: TA97, Metabolic Activation: NONE, Method: PREINCUBATION): active; positive | mutagenic call (Test System: AMES SALMONELLA TYPHIMURIUM, Strain/Indicator: TA97, Metabolic Activation: RAT, LIVER, S-9, AROCLOR 1254 (10%), Method: PREINCUBATION): active; positive | mutagenic call (Test System: AMES SALMONELLA TYPHIMURIUM, Strain/Indicator: TA98, Metabolic Activation: HAMSTER, LIVER, S-9, AROCLOR 1254 (10%), Method: PREINCUBATION): active; positive | mutagenic call (Test System: AMES SALMONELLA TYPHIMURIUM, Strain/Indicator: TA98, Metabolic Activation: RAT, LIVER, S-9, AROCLOR 1254 (10%), Method: PREINCUBATION): active; positive | mutagenic call (Test System: AMES SALMONELLA TYPHIMURIUM, Strain/Indicator: TA100, Metabolic Activation: HAMSTER, LIVER, S-9, AROCLOR 1254 (10%), Method: PREINCUBATION): active; positive | mutagenic call (Test System: AMES SALMONELLA TYPHIMURIUM, Strain/Indicator: TA100, Metabolic Activation: NONE, Method: PREINCUBATION): active; positive | mutagenic call (Test System: AMES SALMONELLA TYPHIMURIUM, Strain/Indicator: TA100, Metabolic Activation: NONE, Method: STANDARD PLATE): active; positive | mutagenic call (Test System: AMES SALMONELLA TYPHIMURIUM, Strain/Indicator: TA100, Metabolic Activation: RAT, LIVER, S-9, AROCLOR 1254 (10%), Method: PREINCUBATION): active; positive | mutagenic call (Test System: AMES SALMONELLA TYPHIMURIUM, Strain/Indicator: TA100, Metabolic Activation: RAT, LIVER, S-9, AROCLOR 1254, Method: STANDARD PLATE): active; positive | mutagenic call (Test System: AMES SALMONELLA TYPHIMURIUM, Strain/Indicator: TA100, Metabolic Activation: RAT, LIVER, S-9, KANECHLOR 500, Method: PREINCUBATION): active; positive | mutagenic call (Test System: AMES SALMONELLA TYPHIMURIUM, Strain/Indicator: TA1535, Metabolic Activation: HAMSTER, LIVER, S-9, AROCLOR 1254 (10%), Method: PREINCUBATION): active; positive | mutagenic call (Test System: AMES SALMONELLA TYPHIMURIUM, Strain/Indicator: TA1535, Metabolic Activation: NONE, Method: PREINCUBATION): active; positive | mutagenic call (Test System: AMES SALMONELLA TYPHIMURIUM, Strain/Indicator: TA1535, Metabolic Activation: NONE, Method: STANDARD PLATE): active; positive | mutagenic call (Test System: AMES SALMONELLA TYPHIMURIUM, Strain/Indicator: TA1535, Metabolic Activation: RAT, LIVER, S-9, AROCLOR 1254 (10%), Method: PREINCUBATION): active; positive | mutagenic call (Test System: AMES SALMONELLA TYPHIMURIUM, Strain/Indicator: TA1535, Metabolic Activation: RAT, LIVER, S-9, AROCLOR 1254, Method: STANDARD PLATE): active; positive

Cc1cccc2ccc3cc4ccccc4cc3c12
mutagenic call (Test System: AMES SALMONELLA TYPHIMURIUM, Strain/Indicator: TA100, Metabolic Activation: RAT, INTACT HEPATOCYTES, AROCLOR 1254, Method: PREINCUBATION): active; positive | mutagenic call (Test System: AMES SALMONELLA TYPHIMURIUM, Strain/Indicator: TA100, Metabolic Activation: RAT, NADPH-FORTIFIED HOMOGENIZED HEPATOCYTES, AROCLOR 1254, Method: PREINCUBATION): active; positive | mutagenic call (Test System: AMES SALMONELLA TYPHIMURIUM, Strain/Indicator: TA100, Metabolic Activation: RAT, SONICATED HEPATOCYTES, AROCLOR 1254, Method: PREINCUBATION): active; positive
